Among the data in publication PMC10174618, “Monoterpenoid aryl hydrocarbon receptor allosteric antagonists protect against ultraviolet skin damage in female mice” (Nature Communications, 2023) are remaining binding values, retold here.

Holding throughout (experiment): biochemical
Common to all, as to set-up: KINOMEscan scanMAX active site-directed competition binding assay, percent of control, 468 kinases
What all share (conditions): competition binding, percent of control

The target in assay [1] is TSSK3 (Homo sapiens, UniProt Q96PN8). Put shortly:
(§1)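 Single-concentration screen (100 μM S-carvone) in a competition binding panel of 468 human kinases (KINOMEscan scanMAX); results given as percent of control, hit cutoff 35%.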

Assay [2] has as its target T1, MEK4 (Homo sapiens, UniProt P45985).
T1 construct: gene MAP2K4
Put shortly: as §1

The target in assay [3] is T2, PFTAIRE2 (Homo sapiens, UniProt Q96Q40).
T2 construct: gene CDK15
In outline:
as §1

In assay [4] the target is PLK2 (Homo sapiens, UniProt Q9NYY3). Put shortly:
as §1

Assay [5] deals with PIK3C2G (Homo sapiens, UniProt O75747). Put shortly: as §1
For assay [6], the target named is T3, LOK (Homo sapiens, UniProt O94804).
T3 construct: gene STK10
In outline: as §1

The target in assay [7] is T4, YANK1 (Homo sapiens, UniProt Q8WU08).
T4 construct: gene STK32A
Put shortly:
as §1

In assay [8] the target is PRKG2 (Homo sapiens, UniProt Q13237). In outline:
as §1

Assay [9] deals with WNK2 (Homo sapiens, UniProt Q9Y3S1). Put shortly: as §1
In assay [10] the target is SGK3 (Homo sapiens, UniProt Q96BR1). Put shortly: as §1
The target of assay [11] is T5, JNK2 (Homo sapiens, UniProt P45984).
T5 construct: gene MAPK9
Put shortly:
as §1

Assay [12] concerns the target GRK2 (Homo sapiens, UniProt P25098). Put shortly:
as §1

Assay [13] addresses T6, PCTK1 (Homo sapiens, UniProt Q00536).
T6 construct: gene CDK16
In outline: as §1

The target of assay [14] is TLK1 (Homo sapiens, UniProt Q9UKI8). In outline:
as §1

Assay [15] has as its target AURKA (Homo sapiens, UniProt O14965). In outline: as §1
The target in assay [16] is T7, ABL1-nonphosphorylated (Homo sapiens, UniProt P00519).
T7 construct: nonphosphorylated
Put shortly: as §1

Assay [17] has as its target SRPK2 (Homo sapiens, UniProt P78362). Put shortly: as §1
Assay [18] addresses ULK2 (Homo sapiens, UniProt Q8IYT8). Put shortly:
as §1

The target in assay [19] is EGFR(L747-E749del, A750P) (Homo sapiens, UniProt P00533, A750P/DEL747-749). In outline:
as §1

Assay [20] concerns the target KIT(V559D,T670I) (Homo sapiens, UniProt P10721, T670I/V559D). In outline:
as §1

For assay [21], the target named is T8, MLK3 (Homo sapiens, UniProt Q16584).
T8 construct: gene MAP3K11
In outline: as §1

Sequence of PLK2 (Q9NYY3 whole entry): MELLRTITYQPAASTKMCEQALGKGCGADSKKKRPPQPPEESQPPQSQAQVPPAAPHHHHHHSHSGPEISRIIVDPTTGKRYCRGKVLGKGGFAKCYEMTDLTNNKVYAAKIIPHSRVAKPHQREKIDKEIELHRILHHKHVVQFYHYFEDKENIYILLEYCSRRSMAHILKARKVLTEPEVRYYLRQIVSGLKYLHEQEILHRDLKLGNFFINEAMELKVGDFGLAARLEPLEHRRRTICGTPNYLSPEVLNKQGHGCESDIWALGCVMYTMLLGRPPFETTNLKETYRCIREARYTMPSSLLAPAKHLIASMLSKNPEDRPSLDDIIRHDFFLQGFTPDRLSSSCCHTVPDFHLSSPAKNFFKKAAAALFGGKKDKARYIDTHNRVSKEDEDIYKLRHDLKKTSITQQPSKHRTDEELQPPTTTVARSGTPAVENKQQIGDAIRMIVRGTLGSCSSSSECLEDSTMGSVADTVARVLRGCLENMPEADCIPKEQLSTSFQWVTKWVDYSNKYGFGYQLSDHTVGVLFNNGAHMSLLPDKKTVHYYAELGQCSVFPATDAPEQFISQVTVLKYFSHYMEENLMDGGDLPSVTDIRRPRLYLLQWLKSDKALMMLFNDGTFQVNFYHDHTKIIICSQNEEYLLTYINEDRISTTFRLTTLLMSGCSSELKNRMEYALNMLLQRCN
T4 sequence (Q8WU08 whole entry): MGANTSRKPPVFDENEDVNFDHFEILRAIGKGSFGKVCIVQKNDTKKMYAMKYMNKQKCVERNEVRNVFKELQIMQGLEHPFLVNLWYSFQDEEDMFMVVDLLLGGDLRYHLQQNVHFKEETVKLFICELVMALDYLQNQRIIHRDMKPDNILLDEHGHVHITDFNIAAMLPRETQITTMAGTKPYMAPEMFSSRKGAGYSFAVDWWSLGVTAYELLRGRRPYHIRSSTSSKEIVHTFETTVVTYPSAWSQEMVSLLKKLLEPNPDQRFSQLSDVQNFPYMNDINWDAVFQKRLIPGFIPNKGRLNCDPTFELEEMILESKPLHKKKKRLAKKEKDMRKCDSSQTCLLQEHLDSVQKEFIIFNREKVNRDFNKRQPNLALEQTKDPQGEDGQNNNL
Sequence of PRKG2 (Q13237 whole entry): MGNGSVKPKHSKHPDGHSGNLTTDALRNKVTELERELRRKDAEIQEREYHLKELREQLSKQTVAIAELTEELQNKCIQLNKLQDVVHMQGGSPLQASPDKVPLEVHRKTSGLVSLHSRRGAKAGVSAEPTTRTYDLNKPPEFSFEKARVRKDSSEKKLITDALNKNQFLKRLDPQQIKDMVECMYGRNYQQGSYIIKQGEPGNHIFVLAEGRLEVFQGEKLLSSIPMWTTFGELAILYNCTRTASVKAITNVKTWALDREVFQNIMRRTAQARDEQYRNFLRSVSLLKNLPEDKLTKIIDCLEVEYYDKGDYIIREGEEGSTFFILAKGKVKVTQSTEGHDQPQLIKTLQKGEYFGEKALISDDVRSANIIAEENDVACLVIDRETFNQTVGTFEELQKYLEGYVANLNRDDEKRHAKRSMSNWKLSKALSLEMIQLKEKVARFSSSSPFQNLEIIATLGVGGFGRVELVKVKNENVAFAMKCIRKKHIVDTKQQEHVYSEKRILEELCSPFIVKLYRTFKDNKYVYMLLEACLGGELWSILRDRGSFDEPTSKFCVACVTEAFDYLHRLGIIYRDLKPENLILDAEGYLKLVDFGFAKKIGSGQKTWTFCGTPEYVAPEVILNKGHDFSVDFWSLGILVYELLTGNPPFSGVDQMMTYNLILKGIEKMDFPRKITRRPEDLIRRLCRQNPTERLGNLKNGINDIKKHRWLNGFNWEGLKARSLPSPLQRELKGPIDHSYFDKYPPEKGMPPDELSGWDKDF
Sequence of WNK2 (Q9Y3S1 whole entry): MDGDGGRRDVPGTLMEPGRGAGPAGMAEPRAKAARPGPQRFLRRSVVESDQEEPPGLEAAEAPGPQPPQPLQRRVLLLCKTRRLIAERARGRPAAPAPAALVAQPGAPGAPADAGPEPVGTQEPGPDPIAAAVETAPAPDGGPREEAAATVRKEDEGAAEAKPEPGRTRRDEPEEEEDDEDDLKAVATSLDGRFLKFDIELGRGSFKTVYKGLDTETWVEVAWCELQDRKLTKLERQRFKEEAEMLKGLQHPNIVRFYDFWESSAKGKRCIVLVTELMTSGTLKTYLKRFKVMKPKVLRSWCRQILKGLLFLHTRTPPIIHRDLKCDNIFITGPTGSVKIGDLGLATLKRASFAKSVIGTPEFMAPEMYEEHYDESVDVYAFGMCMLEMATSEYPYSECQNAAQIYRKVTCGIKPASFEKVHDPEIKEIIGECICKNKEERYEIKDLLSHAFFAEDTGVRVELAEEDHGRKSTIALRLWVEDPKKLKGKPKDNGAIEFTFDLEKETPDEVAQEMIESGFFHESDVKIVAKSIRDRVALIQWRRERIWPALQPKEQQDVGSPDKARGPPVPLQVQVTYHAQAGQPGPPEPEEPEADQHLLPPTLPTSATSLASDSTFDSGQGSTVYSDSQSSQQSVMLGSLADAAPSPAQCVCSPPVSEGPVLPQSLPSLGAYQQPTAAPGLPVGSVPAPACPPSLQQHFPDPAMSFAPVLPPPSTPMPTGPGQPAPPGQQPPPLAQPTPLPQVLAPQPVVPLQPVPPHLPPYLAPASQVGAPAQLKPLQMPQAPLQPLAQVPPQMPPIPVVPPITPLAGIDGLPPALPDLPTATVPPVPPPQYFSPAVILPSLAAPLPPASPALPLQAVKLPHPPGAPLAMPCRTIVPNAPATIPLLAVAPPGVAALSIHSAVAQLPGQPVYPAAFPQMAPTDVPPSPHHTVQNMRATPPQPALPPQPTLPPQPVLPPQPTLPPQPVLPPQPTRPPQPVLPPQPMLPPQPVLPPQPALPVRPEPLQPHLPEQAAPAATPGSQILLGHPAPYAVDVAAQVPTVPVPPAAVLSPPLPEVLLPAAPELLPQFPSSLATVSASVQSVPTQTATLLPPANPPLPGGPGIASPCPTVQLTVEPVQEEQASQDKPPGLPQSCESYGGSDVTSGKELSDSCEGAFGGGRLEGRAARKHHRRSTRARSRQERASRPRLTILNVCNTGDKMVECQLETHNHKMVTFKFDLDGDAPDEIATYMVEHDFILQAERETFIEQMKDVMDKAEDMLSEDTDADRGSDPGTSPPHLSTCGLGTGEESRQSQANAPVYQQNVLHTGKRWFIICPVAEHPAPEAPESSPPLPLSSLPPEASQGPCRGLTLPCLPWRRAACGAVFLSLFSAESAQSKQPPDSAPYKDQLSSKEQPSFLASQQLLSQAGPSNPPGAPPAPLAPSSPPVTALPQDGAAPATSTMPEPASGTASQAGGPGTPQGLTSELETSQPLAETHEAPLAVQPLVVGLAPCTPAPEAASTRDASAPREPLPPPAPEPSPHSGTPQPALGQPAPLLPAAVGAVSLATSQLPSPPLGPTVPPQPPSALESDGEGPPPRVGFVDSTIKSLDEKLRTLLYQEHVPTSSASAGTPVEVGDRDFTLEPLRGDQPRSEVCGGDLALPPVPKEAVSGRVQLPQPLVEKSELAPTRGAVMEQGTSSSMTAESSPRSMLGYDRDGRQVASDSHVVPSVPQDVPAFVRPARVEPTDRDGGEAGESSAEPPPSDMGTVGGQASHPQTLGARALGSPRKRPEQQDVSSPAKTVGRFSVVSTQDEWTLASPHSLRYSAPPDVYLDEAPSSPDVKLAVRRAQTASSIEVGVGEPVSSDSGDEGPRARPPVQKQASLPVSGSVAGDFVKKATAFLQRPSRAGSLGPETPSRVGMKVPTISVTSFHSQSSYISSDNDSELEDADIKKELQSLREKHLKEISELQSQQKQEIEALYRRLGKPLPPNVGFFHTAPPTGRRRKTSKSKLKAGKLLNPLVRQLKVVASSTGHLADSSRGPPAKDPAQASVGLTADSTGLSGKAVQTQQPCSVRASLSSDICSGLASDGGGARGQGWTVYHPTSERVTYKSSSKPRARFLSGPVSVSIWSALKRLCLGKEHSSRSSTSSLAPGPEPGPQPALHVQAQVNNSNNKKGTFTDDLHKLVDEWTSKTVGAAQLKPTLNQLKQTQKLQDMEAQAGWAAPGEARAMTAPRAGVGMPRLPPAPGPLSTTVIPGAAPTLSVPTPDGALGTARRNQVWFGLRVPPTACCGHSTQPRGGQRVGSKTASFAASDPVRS
T5 sequence (P45984 whole entry): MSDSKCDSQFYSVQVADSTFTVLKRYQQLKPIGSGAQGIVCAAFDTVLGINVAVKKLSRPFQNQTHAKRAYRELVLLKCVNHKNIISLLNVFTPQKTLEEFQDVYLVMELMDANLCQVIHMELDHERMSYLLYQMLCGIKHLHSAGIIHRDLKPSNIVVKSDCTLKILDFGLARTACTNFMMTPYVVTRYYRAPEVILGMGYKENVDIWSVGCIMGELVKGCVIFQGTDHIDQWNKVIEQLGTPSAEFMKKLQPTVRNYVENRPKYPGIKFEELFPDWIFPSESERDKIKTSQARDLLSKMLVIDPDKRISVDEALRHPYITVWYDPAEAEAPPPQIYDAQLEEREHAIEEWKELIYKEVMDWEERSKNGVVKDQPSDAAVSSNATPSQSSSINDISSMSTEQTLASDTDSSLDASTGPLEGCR
T2 sequence (Q96Q40 whole entry): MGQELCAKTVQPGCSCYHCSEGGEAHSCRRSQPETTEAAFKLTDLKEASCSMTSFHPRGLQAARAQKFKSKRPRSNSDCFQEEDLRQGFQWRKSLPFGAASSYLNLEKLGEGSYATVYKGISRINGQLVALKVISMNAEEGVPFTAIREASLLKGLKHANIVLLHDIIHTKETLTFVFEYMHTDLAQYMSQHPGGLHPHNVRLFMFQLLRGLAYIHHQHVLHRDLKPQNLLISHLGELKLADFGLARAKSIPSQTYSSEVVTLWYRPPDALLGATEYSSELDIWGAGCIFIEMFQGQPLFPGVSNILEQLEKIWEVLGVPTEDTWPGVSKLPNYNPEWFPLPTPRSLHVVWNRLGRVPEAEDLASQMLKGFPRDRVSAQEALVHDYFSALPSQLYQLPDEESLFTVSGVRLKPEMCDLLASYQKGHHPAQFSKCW

Turning to `C=C(C)[C@H]1CC=C(C)C(=O)C1` [S-carvone], the remaining binding at 100 µM is 100% in assay [1]; 74% in [2]; 87% in assay [3]; 68% in assay [4]; 62% in assay [5]; 87% in assay [6]. In addition, the remaining binding at 100 µM in [7] was determined as 78%; in assay [8], 76%; in [9], 77%; in assay [10] it was 81%; in [11], 95%; in assay [12], 58%. Also, the remaining binding at 100 µM in [13] turned out to be 100%; in [14], 59%; in assay [15] it was 81%; in [16], 76%; in assay [17] it was 99%; in assay [18] it was 75%. Also, the figures for the remaining binding at 100 µM in [19], in [20] and in assay [21] were 86%, 91% and 73%, respectively.
